Measured values taken from ChEMBL document CHEMBL3301562, “MMV Box screening against Plasmodium falciparum protein kinases and aminoacyl tRNA synthetases”.

Legend:
Format in all cases: functional
[1] = target: T1, Calcium-dependent protein kinase 4 (Plasmodium falciparum (isolate 3D7), UniProt Q8IBS5); test: MMV: CDPK4 Protein kinase inhibition assay using recombinant PfCDPK4, syntide2 peptide substrate, ATP and KinaseGlo to measure % inhibition at 1 uM MMV box compound.
T1 sequence (Q8IBS5 whole entry): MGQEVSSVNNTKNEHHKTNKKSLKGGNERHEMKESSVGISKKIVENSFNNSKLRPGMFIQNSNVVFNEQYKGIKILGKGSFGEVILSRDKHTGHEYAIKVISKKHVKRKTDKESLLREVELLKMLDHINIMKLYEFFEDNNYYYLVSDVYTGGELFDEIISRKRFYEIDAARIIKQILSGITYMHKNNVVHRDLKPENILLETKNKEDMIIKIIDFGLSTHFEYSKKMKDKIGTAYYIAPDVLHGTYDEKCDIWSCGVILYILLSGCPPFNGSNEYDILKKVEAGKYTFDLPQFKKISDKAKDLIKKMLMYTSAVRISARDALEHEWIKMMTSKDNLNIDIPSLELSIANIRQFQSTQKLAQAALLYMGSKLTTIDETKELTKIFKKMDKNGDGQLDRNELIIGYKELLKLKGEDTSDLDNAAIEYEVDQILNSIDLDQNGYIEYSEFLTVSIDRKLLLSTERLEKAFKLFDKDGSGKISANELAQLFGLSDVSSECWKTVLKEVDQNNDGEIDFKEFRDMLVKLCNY

Proline--tRNA ligase = target: T2, Proline--tRNA ligase (Plasmodium falciparum (isolate 3D7), UniProt Q8I5R7); test: MMV: ProRS recombinant Plasmodium falciparum Prolyl-tRNA-synthetase, assay with yeast tRNA, ATP, and proline and 3 uM MMV malaria box compound, assay read out with kinase glo as % inhibition.
T2 sequence (Q8I5R7 whole entry): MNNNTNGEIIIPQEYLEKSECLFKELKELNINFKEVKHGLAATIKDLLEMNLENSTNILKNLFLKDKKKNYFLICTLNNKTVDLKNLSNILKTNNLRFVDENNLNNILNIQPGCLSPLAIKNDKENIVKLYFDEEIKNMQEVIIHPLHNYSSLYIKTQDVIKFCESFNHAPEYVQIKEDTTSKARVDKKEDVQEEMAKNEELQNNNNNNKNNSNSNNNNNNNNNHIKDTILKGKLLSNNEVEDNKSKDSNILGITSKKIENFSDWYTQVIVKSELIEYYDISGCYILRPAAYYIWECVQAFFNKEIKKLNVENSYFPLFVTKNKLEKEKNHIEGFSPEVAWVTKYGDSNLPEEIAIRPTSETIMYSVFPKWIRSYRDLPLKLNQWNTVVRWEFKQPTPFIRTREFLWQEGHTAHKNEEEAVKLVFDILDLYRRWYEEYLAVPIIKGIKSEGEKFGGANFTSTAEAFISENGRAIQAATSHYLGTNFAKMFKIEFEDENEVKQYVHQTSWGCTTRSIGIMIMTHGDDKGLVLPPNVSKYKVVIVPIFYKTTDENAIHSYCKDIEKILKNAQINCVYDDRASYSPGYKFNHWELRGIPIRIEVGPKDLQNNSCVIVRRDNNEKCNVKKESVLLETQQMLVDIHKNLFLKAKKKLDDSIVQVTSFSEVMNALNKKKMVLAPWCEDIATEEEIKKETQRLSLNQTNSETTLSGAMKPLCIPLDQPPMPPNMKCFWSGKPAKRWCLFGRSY

[2] = target: T3, Cdk-related protein kinase 6 (Plasmodium falciparum, UniProt O77239); test: Final concentrations were 1.5 uM ATP, 5 mM MnCl2, and 15 ug/ml PK6 in a buffer of 100 mM Tris-HCl (pH 7.5). 50 ug/mL MBP was provided as the substrate; 10 uM staurosporine was used as a control inhibitor. Incubation time was 3 hours and 40 minutes.The catalytic activity of each kinase was considered proportional to ATP consumed, as determined from measurements of residual [ATP] with the luciferase-based reagent Kinase-Glo (Promega) following incubation. Luminescence (proportional to residual [ATP]) was measured on the plate readers FLx800 (BioTek Instruments, Winooski, VT, USA) and MicroBeta2.
T3 sequence (O77239 whole entry): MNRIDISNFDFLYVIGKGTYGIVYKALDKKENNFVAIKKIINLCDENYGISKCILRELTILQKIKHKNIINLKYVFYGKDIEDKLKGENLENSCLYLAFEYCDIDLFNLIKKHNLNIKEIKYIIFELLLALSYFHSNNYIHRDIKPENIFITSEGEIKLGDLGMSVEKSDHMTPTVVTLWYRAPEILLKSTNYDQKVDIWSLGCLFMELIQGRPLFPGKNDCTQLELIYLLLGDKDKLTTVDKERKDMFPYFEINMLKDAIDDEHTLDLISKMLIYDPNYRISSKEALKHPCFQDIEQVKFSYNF

[3] = target: T4, Putative uncharacterized protein pk7 (Plasmodium falciparum, UniProt O96214); test: Final concentrations were 1 uM ATP, 2 mM DTT, 20 mM MgCl2, 2 mM MnCl2, 0.01% BSA, and 6 ug/ml PK7, in a buffer of 20 mM Tris-HCl (pH 7.5). The enzyme itself was the only substrate present (since autophosphorylation occurs); 100 uM 1NA-PP1 was used as a control inhibitor. Incubation time was 3 hours.
T4 sequence (O96214 whole entry): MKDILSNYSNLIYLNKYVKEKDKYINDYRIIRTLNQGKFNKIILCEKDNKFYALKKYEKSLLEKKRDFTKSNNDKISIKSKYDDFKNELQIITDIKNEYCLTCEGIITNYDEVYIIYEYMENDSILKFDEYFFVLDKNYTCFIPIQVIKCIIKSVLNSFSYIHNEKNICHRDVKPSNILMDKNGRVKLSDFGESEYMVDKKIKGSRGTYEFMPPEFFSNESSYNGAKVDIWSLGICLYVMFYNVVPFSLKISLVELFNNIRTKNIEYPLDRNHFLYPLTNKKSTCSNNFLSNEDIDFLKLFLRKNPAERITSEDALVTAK

[4] = target: T5, Mitogen-activated protein kinase (Plasmodium falciparum, UniProt Q25917); test: Final concentrations were 1 uM ATP, 0.5 mM DTT, 1 mM MgCl2, 0.5 mg/mL BSA, and 10 ug/ml MAP2 in a buffer of 50 mM HEPES (pH 7.0). 0.5 mg/mL histone III-S served as the substrate (13); 100 uM AMP-PNP, an ATP analog, was used as a control inhibitor. Incubation time was 4 hours.
T5 sequence (Q25917 whole entry): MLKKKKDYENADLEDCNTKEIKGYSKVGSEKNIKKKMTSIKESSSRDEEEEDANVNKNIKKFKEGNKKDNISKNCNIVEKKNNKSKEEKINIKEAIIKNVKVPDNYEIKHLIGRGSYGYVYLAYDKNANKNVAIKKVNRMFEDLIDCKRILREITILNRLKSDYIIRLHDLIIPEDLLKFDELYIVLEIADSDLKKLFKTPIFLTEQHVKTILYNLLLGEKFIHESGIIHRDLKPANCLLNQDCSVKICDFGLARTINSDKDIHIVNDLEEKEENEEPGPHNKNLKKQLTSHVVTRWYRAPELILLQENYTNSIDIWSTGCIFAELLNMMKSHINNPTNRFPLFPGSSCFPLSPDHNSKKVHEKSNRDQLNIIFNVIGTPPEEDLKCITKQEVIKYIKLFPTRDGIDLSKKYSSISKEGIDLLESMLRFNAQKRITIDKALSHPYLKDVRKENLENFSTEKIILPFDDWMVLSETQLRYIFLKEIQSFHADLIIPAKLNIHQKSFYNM

[5] = target: Calcium-dependent protein kinase 1 (Plasmodium falciparum, UniProt P62344); test: MMV: CDPK1 Protein kinase inhibition assay using recombinant PfCDPK1, syntide 2 peptide substrate, ATP and KinaseGlo to measure % inhibition at 1 uM MMV box compound.
Lysine--tRNA ligase = Lysine--tRNA ligase (Plasmodium falciparum (isolate 3D7), UniProt Q8IDJ8); test: MMV: KRS recombinant Plasmodium falciparum Lysyl-tRNA-synthetase, assay with yeast tRNA, ATP, and lysine and 3 uM MMV malaria box compound, assay read out with kinase glo as % inhibition.
Chain of Lysine--tRNA ligase (Q8IDJ8 whole entry): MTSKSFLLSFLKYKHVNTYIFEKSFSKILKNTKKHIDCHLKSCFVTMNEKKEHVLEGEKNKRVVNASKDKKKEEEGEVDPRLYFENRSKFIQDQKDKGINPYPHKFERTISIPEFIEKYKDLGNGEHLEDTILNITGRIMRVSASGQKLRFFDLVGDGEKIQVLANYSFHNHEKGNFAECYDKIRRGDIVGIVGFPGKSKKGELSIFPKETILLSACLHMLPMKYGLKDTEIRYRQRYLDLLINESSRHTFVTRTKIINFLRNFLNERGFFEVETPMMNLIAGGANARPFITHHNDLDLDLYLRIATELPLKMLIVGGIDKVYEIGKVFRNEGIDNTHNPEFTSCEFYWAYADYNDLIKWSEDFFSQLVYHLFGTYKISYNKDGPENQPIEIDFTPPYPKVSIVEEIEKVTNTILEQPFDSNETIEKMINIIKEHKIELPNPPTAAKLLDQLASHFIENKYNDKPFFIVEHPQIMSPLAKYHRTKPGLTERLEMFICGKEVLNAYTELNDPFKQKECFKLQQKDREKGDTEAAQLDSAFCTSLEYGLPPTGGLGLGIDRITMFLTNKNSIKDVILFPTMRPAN

Chain of Calcium-dependent protein kinase 1 (P62344 whole entry): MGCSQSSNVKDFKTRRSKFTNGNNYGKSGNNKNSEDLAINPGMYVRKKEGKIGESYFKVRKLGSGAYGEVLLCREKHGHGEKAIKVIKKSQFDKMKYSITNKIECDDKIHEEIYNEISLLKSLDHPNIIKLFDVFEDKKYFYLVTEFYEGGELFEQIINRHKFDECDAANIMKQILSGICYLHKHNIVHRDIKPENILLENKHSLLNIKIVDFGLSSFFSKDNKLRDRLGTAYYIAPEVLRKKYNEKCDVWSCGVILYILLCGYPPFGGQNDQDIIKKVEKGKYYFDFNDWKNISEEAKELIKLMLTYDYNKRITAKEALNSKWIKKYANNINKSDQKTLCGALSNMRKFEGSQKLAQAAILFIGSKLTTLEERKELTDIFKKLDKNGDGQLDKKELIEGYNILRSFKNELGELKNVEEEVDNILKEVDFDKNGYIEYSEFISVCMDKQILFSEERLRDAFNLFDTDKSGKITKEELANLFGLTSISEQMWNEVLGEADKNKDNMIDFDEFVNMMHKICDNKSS

SMILES | IC50 [1] [µM] | IC50 (Proline--tRNA ligase) [µM] | IC50 [2] [µM] | IC50 [3] [µM] | IC50 [4] [µM] | IC50 [5] [µM] | IC50 (Lysine--tRNA ligase) [µM]
COc1ccc(Nc2nc(N/N=C/c3ccc(O)cc3)nc(Nc3ccc([N+](=O)[O-])cc3)n2)cc1 | > 1 | > 2.5 | > 1 | > 1 | > 1 | > 1 | > 2.5
Cc1sc(NC(=O)c2ccco2)c(C(c2cccnc2)N2CCC(Cc3ccccc3)CC2)c1C (configuration not stated) | > 1 | > 2.5 | > 1 | > 1 | > 1 | > 1 | > 2.5
O=C(NNc1cc(N2CCCC2)nc(N2CCCC2)n1)c1ccccc1 | > 1 | > 2.5 | > 1 | > 1 | > 1 | > 1 | > 2.5
COC(=O)c1ccc(Cl)c2c1C1C=CCC1C(c1cccc3ccccc13)N2 (configuration not stated) | > 1 | > 2.5 | > 1 | > 1 | > 1 | > 1 | > 2.5
O=C(CCc1ccccc1)c1ccccc1OCC(O)CN1CCCCC1 (configuration not stated) | > 1 | > 2.5 | > 1 | > 1 | > 1 | > 1 | > 2.5
OC1=C2C(=Nc3ccccc3SC2c2ccccc2)c2ccccc21 (configuration not stated) | > 1 | > 2.5 | > 1 | > 1 | > 1 | > 1 | > 2.5
COC(=O)c1ccc(C2C3=C(O)CC(c4ccc(F)cc4)CC3=Nc3ccccc3N2C(=O)c2ccccc2)cc1 (configuration not stated) | > 1 | > 2.5 | > 1 | > 1 | > 1 | > 1 | > 2.5
CC(=O)c1sc(NC(=O)Nc2ccc(C)cc2C)nc1C | > 1 | > 2.5 | > 1 | > 1 | > 1 | > 1 | > 2.5
Cn1c(C(=O)c2cccc3ccccc23)nc2ccccc21 | > 1 | > 2.5 | > 1 | > 1 | > 1 | > 1 | > 2.5
O=C(Nc1ccc(-c2nc3ccccc3[nH]2)cc1)c1ccc(Cl)c(Cl)c1 | > 1 | > 2.5 | > 1 | > 1 | > 1 | > 1 | > 2.5
OCCNc1nc(Nc2ccc(Cl)c(Cl)c2)nc2ccccc12 | > 1 | > 2.5 | > 1 | > 1 | > 1 | > 1 | > 2.5
Nc1ccc(-c2nc3cc(Oc4ccc(Oc5ccc6[nH]c(-c7ccc(N)cc7)nc6c5)cc4)ccc3[nH]2)cc1 | > 1 | > 2.5 | > 1 | > 1 | > 1 | > 1 | > 2.5
Cc1cc(N(C)C)nc(Nc2ccc(NC(=O)Nc3ccccc3)cc2)n1 | > 1 | > 2.5 | > 1 | > 1 | > 1 | > 1 | > 2.5
COc1cc(C(=O)ON=C(N)Cc2cccc3ccccc23)cc(OC)c1OC | > 1 | > 2.5 | > 1 | > 1 | > 1 | > 1 | > 2.5
Cc1ccc(Nc2nc(N)c3ccccc3n2)cc1Cl | > 1 | > 2.5 | > 1 | > 1 | > 1 | > 1 | > 2.5
CCc1ccc(CNCC(O)c2ccccc2)cc1 (configuration not stated) | > 1 | > 2.5 | > 1 | > 1 | > 1 | > 1 | > 2.5
CCn1c2c(c(=N)c3c1CCC3)CCCC2 | > 1 | > 2.5 | > 1 | > 1 | > 1 | > 1 | > 2.5
Cc1ccc2c(C)nc(Nc3nc(C)cc(-c4ccccc4)n3)nc2c1 | > 1 | > 2.5 | > 1 | > 1 | > 1 | > 1 | > 2.5
CCOc1ccc(Nc2ccnc3cc(Cl)ccc23)cc1 | > 1 | > 2.5 | > 1 | > 1 | > 1 | > 1 | > 2.5
CCCn1c(=N)c(C(=O)NC2CCCCC2)cc2c(=O)n3cccc(C)c3nc21 | > 1 | > 2.5 | > 1 | > 1 | > 1 | > 1 | > 2.5
Nc1ccn([C@@H]2O[C@H](CO)[C@@H](O)[C@H]2O)c(=O)n1 [CYTIDINE] | > 1 | > 2.5 | > 1 | > 1 | > 1 | > 1 | > 2.5
